Entries after “also recorded” stand apart in the source; their conditions may differ.
What was measured:
[1] = tested on: isolated rat ventricular myocytes; assay: Whole Ca2+ transients and SR Ca2+ load in isolated rat ventricular myocytes (Indo-1, caffeine); format: cell-based
Description: Isolation of ventricular myocytes from rats was carried out as previously described. Bassani, R A. et al., J. Mol. Cell Cardiol., 26, 1335-1347 (1994). The enzyme used for tissue dissociation was Liberase Blendzyme 3 or 4 (13-20 Wuensch Units/Heart) sometimes supplemented with 5-10 Units of Dispase II (both Roche Diagnostics, Indianapolis, Ind.). When the heart became flaccid, left ventricular tissue was cut into small pieces for further incubation (5 to 10 min at 37° C.) in enzyme solution. The tissue was dispersed, filtered, and suspensions rinsed several times before used for experiments. Isolated rat ventricular myocytes were then plated onto superfusion chambers, with the glass bottoms treated with natural mouse laminin (Invitrogen, Carlsbad, Calif.). The standard Tyrode's solution used in all experiments contained (in mM): NaCl 140, KCl 4, MgCl2 1, glucose 10, HEPES 5, and CaCl2 1, pH 7.4. Myocytes were loaded with 6 μM Indo-1/AM for 25 min and subsequently perfused for at least 30 min to allow for deesterfication of the dye. Some cells were pretreated with 0.5 mM AS (in some Caffeine experiments with 1 mM), washed and then loaded with Indo-1/AM. Concentration of the AS stock solution was verified by absorbance at 250 nm. All experiments were done at room temperature (23-25° C.) using field stimulation. Ca^2+-transients were recorded with Clampex 8.0 and data analyzed with Clampfit.
To further explore potential HNO targets, calcium cycling in adult mouse and rat cardiac myocytes was examined. Cells were first exposed to AS for 5-10 min, then washed and loaded with Indo-1 or Fluo-4 for 20 min. Pretreatment with AS was carried out because the drug reacted with the Ca^2+ indicators (both Fluo-4 and Indo-1) and altered their fluorescent properties. In mice, the calcium transient amplitude assessed by confocal line scan imaging increased by ˜40% over baseline with 0.5 mM AS, (n=27, p<0.001) (FIG. 3A-FIG. 3C), time to peak transient was prolonged (FIG. 3D) while the decay time shortened (FIG. 3E). Basal fluorescence (F0) was unchanged by AS pretreatment (FIG. 3F). Similar results were obtained in rat myocytes (using Indo-1) for Ca^2+ transient amplitude (FIG. 3G and FIG. 3H) and decay time (FIG. 3I). The increase in amplitude was not accompanied by an increase in diastolic Ca^2+ level (ratio 405/485=0.239±0.006 (Con) vs. 0.243±0.008 (AS); n.s.; see also FIG. 3A, FIG. 3F and FIG. 3G). Rapid sustained caffeine (10 mM) application abruptly releases all SR Ca^2+ and subsequent [Ca^2+]i decline is mediated mainly via Na/Ca exchange.

[2] = End-diastolic pressure-volume relationship (EDPVR) in chronically instrumented dogs with pacing-induced cardiac failure; format: in vivo; conditions: CHF dog preparations
Description: Adult male mongrel dogs (22-25 kg) were chronically instrumented for pressure-dimension analysis as described. See, Paolocci et al., “Positive Inotropic and Lusitropic Effects of HNO/NO− in Failing Hearts: Independence from Beta-Adrenergic Signaling,” Proc. Natl. Acad. Sci. USA., 100, 5537-5542 (2003); and Senzaki et al., Circulation, 101, 1040-1048 (2000). Animals were anesthetized with 1% to 2% halothane after induction with sodium thiopental (10-20 mg/kg, i.v.). The surgical/experimental animal protocol was approved by the Johns Hopkins University Animal Care and Use Committee. […] Cardiac failure was induced by rapid ventricular pacing for 3 weeks as described. See, Paolocci et al., supra, and Senzaki et al., supra.
Hemodynamic data were digitized at 250 Hz. […] These relations strongly correlate with results from pressure-volume data in normal and failing hearts, as previously validated. Cardiovascular function was assessed by stroke dimension, fractional shortening (stroke dimension/end-diastolic dimension [EDD]), estimated cardiac output (stroke dimension×HR), peak rate of pressure rise (dP/dtmax), end-systolic elastance (Ees, slope of end-systolic pressure-dimension relation [ESPDR]), the slope of dP/dtmax-EDD relation (DEDD) (see, Little, Circ Res., 56:808-815 (1985)), pre-recruitable stroke work (PRSW), (based on dimension-data), estimated arterial elastance (Ea, end systolic pressure/stroke dimension) and estimated total resistance (RT, […]). Ees, DEDD and PRSW provide load-insensitive contractility measures.
The end-diastolic pressure-volume relationship (EDPVR) was determined applying non-linear regression analysis to the end-diastolic pressure and volume points (Ped and Ved, respectively), according to Kass, Cardiol Clin., 18, 571-86 (2000) (Review).
In order to evaluate the impact of each pharmacological intervention on the EDPVR, changes in end-diastolic pressure from baseline (ΔPed) at volumes providing baseline end-diastolic pressure of […] mmHg EDP (V10, V15, V20, respectively) were determined (FIG. 5).

[Na+].[Na+].[O-][N+]([O-])=NO [AS, Angeli's salt]
fractional SR Ca2+ release ([1]; AS pretreated): enhanced
relative contribution of NCX to Ca2+ removal ([1]; AS pretreated cells, Con 12.4%): 8.7%
relative contribution of the SR to Ca2+ removal ([1]; AS pretreated cells, Con 87.6%): 91.3%
diastolic Ca2+ level (ratio 405/485) ([1]; AS pretreated rat myocytes, Con 0.239±0.006, n.s.): 0.243±0.008
SR Ca2+ content (total SR load, caffeine) ([1]; AS pretreated, caffeine 10 mM): unchanged; also recorded: did not alter
τ of caffeine-induced Ca2+ transient decline (Na/Ca exchange function) ([1]; caffeine 10 mM, printed 2.0±0.4 vs. 2.2±0.3, order Con vs. AS assumed): 2.2 ± 0.3 s
effect on end-diastolic pressure-volume relationship (EDPVR) [2]: declined significantly

Source: patent US20160166604A1, “Thiol-Sensitive Positive Inotropes” (priority 2005, published 2016)
